Measured values from patent US20160271188A1, “PROBIOTIC AND PREBIOTIC COMPOSITIONS, AND METHODS OF USE THEREOF FOR TREATMENT OF GASTROINTESTINAL DISORDERS” (Epiva Biosciences, Inc., priority 2014, published 2016).
Entries after “also recorded” stand apart in the source; their conditions may differ.

Columns and labels:
[1] = tested on: healthy, adult volunteers; details: human, in vivo
Description: D-xylose is a carbon source generally preferred by anaerobic bacteria. […] A parallel, double-blind, 5 cohort escalation food safety study was conducted to examine D-xylose in normal human volunteers. The study was a double-blind, single-center, parallel group study designed to evaluate the tolerability and potential microbiome changes induced by ingestion of D-xylose at 5 different amounts in healthy, adult volunteers enrolled at 1 study center in the United States (US).
Subjects were screened for eligibility within 21 days prior to the first planned ingestion of study sweetener on Day 1 (Baseline). […]
Subjects returned to the study center weekly on Days 8, 15, 22, and 28 for ingestion, tolerability, and compliance evaluations. Safety was evaluated on a continual basis through adverse events (AE) monitoring, clinical laboratory measurements, vital sign monitoring, physical examinations, electrocardiograms (ECGs), telephone follow-up, and electronic subject ingestion diaries. Stool was collected pre-ingestion and at pre-specified time points, and post-ingestion samples were evaluated for changes in the gut microbiome compared with Baseline for all subjects. […]
Safety was evaluated on a continual basis through AE monitoring, clinical laboratory measurements, vital sign monitoring, physical examinations, ECGs, telephone follow-up, and electronic subject ingestion diaries. […]

gut microbiome [2] = test: Normal human volunteer study of D-xylose: changes in the gut microbiome (stool V3-V4 16S sequencing); type: in vivo; details: for gut microbiome community composition: over time on study; for alpha diversity of the gut microbiome: regardless of ingestion amount
gut microbiome [3] = details: mouse, in vivo
[4] = Normal human volunteer study of D-xylose: serum and urine pharmacokinetics; type: in vivo
Description: Blood and urine were collected at pre-specified pre- and post-ingestion time points to measure D-xylose levels and to characterize the systemic absorption profiles of D-xylose. Phoenix® WinNonLin®, Version 6.2.1, was used for PK analyses. Serum D-xylose concentrations were summarized by cohort using nominal sample times according to actual amount received using summary statistics (n, coefficient of variation [CV], mean, standard deviation [SD], median, minimum, and maximum). Evidence for the occurrence of steady-state was assessed graphically by comparing the time course of either trough or 2-hour post-ingestion serum concentrations of D-xylose as different levels of D-xylose. Accumulation was assessed by comparing the 2-hour post-first-ingestion serum levels with those observed at Week 2 (Day 15) and Week 4 (Day 28). […] Urine PK parameters for D-xylose levels included Ae(0-t) (cumulative amount of sweetener recovered in urine) and percent sweetener amount excreted over a 5-hour period.

[5] = tested on: healthy, adult volunteers; test: Normal human volunteer study of D-xylose: CRP, serum cytokines, T-cell markers; type: in vivo
Description: Blood was collected at pre-specified pre- and post-ingestion time points to evaluate C-reactive protein (CRP), serum cytokines (tumor necrosis factor alpha [TNF-α], interleukin [IL]-2, IL-6, interferon gamma [IFN-γ], and IL-10), and T-cell markers CD3, CD4, CD8, CD25, and FOXP3. Plasma was also stored and may be tested for biomarkers and/or metabolic markers for up to 7 years.
Summary statistics (n, mean, standard deviation, median, minimum, and maximum) were presented for serum concentrations of CRP, flow cytometry T-cell markers (CD3, CD4, CD8, CD25, and FOXP3), and cytokines (TNF-α, IL-2, IL-6, IFN-γ, and IL-10) as per their nominal time points.

microbiome of the gut = details: mouse, in vivo
Description: (§1) The trillions of organisms forming the microbiome function as an organ system interconnected throughout the body. The possibility that modification of the microbiome in a given physical location may influence the microbiome at other sites in the body (distal augmentation) was investigated. Seven week old C57Bl/6 female mice were acclimatized for 7 days prior to the start of the study by daily handling and shuffling between cages. All mice were housed at three mice per cage in individually vented cages (Thoren, Hazleton, Pa.). At day 0, baseline fresh fecal pellets, and vaginal lavages with 100 μL of sterile double-distilled water were collected and immediately frozen at −80° C. for microbiome analysis. […] Water alone is not expected to influence the microbiome and acted as a negative control. […] The impact of oral vancomycin is therefore expected to be limited to the gastrointestinal tract such that microbiome changes elsewhere in the body (e.g. vagina) would be attributable to distal augmentation. At day 6, fresh fecal pellets and vaginal lavages with 100 μL of sterile double-distilled water were collected and immediately stored at −80° C. for microbiome analysis.
(§2) Isolation and sequencing of microbial DNA from the stool and vaginal samples was performed by DNA Genotek (Ottawa, ON, Canada). The V3-V4 region of the 16S ribosomal subunit was amplified with custom PCR primers and sequenced on an Illumina MiSeq to a minimum acceptable read depth of 25,000 sequences per sample. […] These OTU's were then assigned a curated taxonomic label based on the seven level SILVA taxonomy.

microbiome of the vagina = details: mouse, in vivo
Description: as §1, §2

[6] = in vivo, po; cited from earlier work
[7] = tested on: human peripheral blood mononuclear cells (PBMCs); test: Cytokine release by human PBMCs incubated with commensal bacteria alone or with E. faecalis (Luminex); type: cell-based; details: for overall anti-inflammatory cytokine profile for a Th-1-driven condition such as GVHD: alone and with EPV 8
Description: An in vitro system was developed to efficiently test the inflammatory and immunomodulatory properties of different human commensal bacteria on human peripheral blood mononuclear cells (PBMCs). Experiments were carried out with 21 bacterial candidates to profile their anti-inflammatory properties against human PBMCs. The innate properties of bacteria alone on human PBMCs were tested as well as their ability to counteract the pro-inflammatory activity of Enterococcus feacalis.
Human PBMCs were isolated from fresh blood by density-gradient centrifugation using Ficoll (1-4). […] The results are presented in FIGS. 2-5 for all time points. […] The 24 h results are shown as a composite in FIG. 6 and with statistical analysis on individual cytokines in FIGS. 7-10. The results represent the properties of each bacterial species against human PBMCs and their ability to counteract inflammatory stimulation with E. faecalis in vitro.

tumors = details: oral administration; Sivan et al., Vetizou et al.; cited from earlier work

O=C[C@H](O)[C@@H](O)[C@H](O)CO [D-xylose]
SAEs, severe AEs, deaths [1]: No SAEs, severe AEs, or subject deaths | subjects who experienced at least 1 AE ([1]; 28 days): 38.9% | Chao diversity index (community richness) (gut microbiome [2]; over time): overall decrease in the Chao diversity index over time | gut microbiome community composition (gut microbiome [2]): no significant changes in community composition | gut microbiome community composition (gut microbiome [2]; listed as xylose): exerts subtle changes in the gut microbiome | alpha diversity of the gut microbiome (gut microbiome [2]; over time): no apparent significant impact on the intra-sample alpha diversity | alpha diversity of the gut microbiome (gut microbiome [2]; over time, listed as xylose): no major shifts in the microbiome alpha diversity | shifts in the gut microbiome (gut microbiome [3]): did not cause major shifts in the gut microbiome but showed some differences at the family level | ingested amount recovered in urine within 5 hours post-ingestion ([4]; 1 g TID, Days 1, 15 and 28): approximately 40% | serum D-xylose concentrations vs ingestion amount ([4]; 1 to 15 g TID): increased linearly with increasing ingestion amounts | accumulation ratio ([4]; Day 15, 15 mg TID cohort): approximately 1.9 fold | accumulation of serum D-xylose ([4]; Day 15, 1 g to 12.5 g TID): Little to no accumulation | accumulation ratio ([4]; Day 28, 15 g TID): 1.68 | serum interferon gamma over time ([5]; 2 g and 15 g cohorts): trend for reduced levels of serum interferon gamma over time | subjects with normal serum CRP at Baseline and at least 1 post-ingestion CRP value >2.9 mg/L ([5]; all cohorts): 8.3% | total T-cells and T-cell subsets over time ([5]; any ingestion amount): No consistent or clinically meaningful changes over time | serum cytokines (TNF-α, IL-2, IL-6, IFN-γ, IL-10) over time ([5]; most data points BLQ, any ingestion amount): did not indicate any consistent or clinically meaningful changes over time

CN[C@H](CC(C)C)C(=O)N[C@H]1C(=O)N[C@@H](CC(N)=O)C(=O)N[C@H]2C(=O)N[C@H]3C(=O)N[C@H](C(=O)N[C@H](C(=O)O)c4cc(O)cc(O)c4-c4cc3ccc4O)[C@H](O)c3ccc(c(Cl)c3)Oc3cc2cc(c3O[C@@H]2O[C@H](CO)[C@@H](O)[C@H](O)[C@H]2O[C@H]2C[C@](C)(N)[C@H](O)[C@H](C)O2)Oc2ccc(cc2Cl)[C@H]1O [vancomycin]
impact on the microbiome of the gut (PCA at family level) (microbiome of the gut): strong impact on the microbiome of the gut | median abundance of bacterial species in vaginal samples at day 6 that were not present at day 0 (microbiome of the vagina): approximately 0.00002% | day 0 to day 6 pattern in vaginal samples (PCA) (microbiome of the vagina; po): showed an overall difference | absorption from the gut [6]: poorly absorbed from the gut

B. luti [EPV3]
intrinsic inflammatory activity (induction of pro-inflammatory cytokines) compared to EPV 8 [7]: relatively low intrinsic inflammatory activity compared to EPV 8 | overall anti-inflammatory cytokine profile for a Th-1-driven condition such as GVHD [7]: significantly desirable anti-inflammatory profile; also recorded: capable of inducing a desirable anti-inflammatory cytokine profile | ability to reduce induction of pro-inflammatory cytokines by EPV 8 (IL-6, MCP-1, IL-12p70, IFNγ) ([7]; combination with EPV 8): able to reduce the induction of pro-inflammatory cytokines by EPV 8

B. wexlerae [EPV5]
overall anti-inflammatory cytokine profile for a Th-1-driven condition such as GVHD [7]: suboptimal anti-inflammatory profile for GVHD; also recorded: induces a suboptimal profile for GVHD

Bacteroides
responsiveness to checkpoint inhibitor therapy in cancer (tumors): increases the responsiveness to checkpoint inhibitor therapy

Bifidobacterium
responsiveness to checkpoint inhibitor therapy in cancer (tumors): increases the responsiveness to checkpoint inhibitor therapy

Lactobacillus
responsiveness to checkpoint inhibitor therapy in cancer (tumors): not
